Experimental data from PubChem BioAssay (NCI).
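Grown in 96-well plates, cells were treated for 48 hours with each compound at five concentrations. Insufficient inhibition: endpoint recorded as highest concentration tested. At the GI50, growth is halved. Definition used: TGI = concentration required for complete inhibition of growth.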

Assays:
Test in all cases: inhibition of tumour cell growth, NCI panel, 48 h
[1] = system: NCI/ADR-RES ovarian
[2] = system: NCI-H460 lung
[3] = system: A498 renal
[4] = system: EKVX NSCLC
[5] = system: LOX IMVI melanoma
[6] = system: MDA-MB-435
[7] = system: PC-3 prostate
[8] = system: SNB-19 CNS
[9] = system: COLO 205 colon
[10] = system: HOP-92 NSCLC
[11] = system: HS 578T breast
[12] = system: HCT-116 colon
[13] = system: T-47D breast
[14] = system: HOP-62 NSCLC
[15] = system: MCF7 breast
[16] = system: IGROV1 ovarian
[17] = system: 786-0 renal
[18] = system: U251 CNS
[19] = system: SW-620 colon
[20] = system: SNB-75 CNS
[21] = system: HT29 colon
[22] = system: SN12C renal
[23] = system: ACHN renal
[24] = system: HL-60(TB) leukemia
[25] = system: DU-145 prostate
[26] = system: OVCAR-8 ovarian
[27] = system: M14 melanoma
[28] = system: SF-539 CNS
[29] = system: CCRF-CEM leukemia
[30] = system: HCT-15 colon
[31] = system: OVCAR-3 ovarian
[32] = system: MALME-3M melanoma
[33] = system: SK-MEL-28 melanoma
[34] = system: K-562 leukemia
[35] = system: TK-10 renal
[36] = system: UACC-257 melanoma
[37] = system: HCC-2998 colon
[38] = system: A549 NSCLC
[39] = system: SK-MEL-5 melanoma
[40] = system: RXF 393 renal
[41] = system: RPMI-8226 leukemia
[42] = system: NCI-H226 lung
[43] = system: UACC-62 melanoma
[44] = system: MDA-MB-468 breast
[45] = system: SF-268 CNS
[46] = system: OVCAR-5 ovarian
[47] = system: NCI-H23 lung
[48] = system: NCI-H522 lung
[49] = system: SF-295 CNS
[50] = system: BT-549 breast
[51] = system: OVCAR-4 ovarian
[52] = system: SK-MEL-2 melanoma
[53] = system: CAKI-1 renal
[54] = system: MOLT-4 leukemia
[55] = system: SK-OV-3 ovarian
[56] = system: KM12 colon
[57] = system: MDA-MB-231 breast
[58] = system: UO-31 renal
[59] = system: SR leukemia

For CO[C@H]1CSS[C@@H]1Cn1nc(-c2ccc(Oc3ccccc3)cc2)c2c(N)ncnc21, the GI50 [1] was 12.8 µM, the TGI [1] was 64.6 µM and the GI50 [2] was 2.69 µM. It also gave a TGI [2] of 7.89 µM, a GI50 [3] of 17.7 µM and a TGI [3] of 63.9 µM. The GI50 [4] was 4.87 µM, the TGI [4] was 30.1 µM and the GI50 [5] was 8.01 µM. It also gave a TGI [5] of 20.7 µM, a GI50 [6] of 2 µM and a TGI [6] of 4.28 µM. For the same compound, the GI50 [7] was 18 µM, the TGI [7] was 75.1 µM and the GI50 [8] was 5.96 µM. For the same compound, the TGI [8] was greater than 100 µM, the GI50 [9] was 11.3 µM and the TGI [9] was 24.7 µM. It also gave a GI50 [10] of 5.03 µM, a TGI [10] of 29.3 µM and a GI50 [11] of 14.2 µM. For the same compound, the TGI [11] was 68.3 µM, the GI50 [12] was 4.19 µM and the TGI [12] was 15.9 µM. For the same compound, the GI50 [13] was 2.81 µM, the TGI [13] was 20.8 µM and the GI50 [14] was 3.25 µM. For the same compound, the TGI [14] was 26.9 µM, the GI50 [15] was 3.84 µM and the TGI [15] was 20.6 µM. The GI50 [16] was 8.69 µM, the TGI [16] was 35.3 µM and the GI50 [17] was 17.4 µM. The TGI [17] was 58 µM, the GI50 [18] was 6.89 µM and the TGI [18] was 55.2 µM. It also gave a GI50 [19] of 14.6 µM, a TGI [19] greater than 100 µM and a GI50 [20] of 18.8 µM. For the same compound, the TGI [20] was 75.3 µM, the GI50 [21] was 4.28 µM and the TGI [21] was 18.1 µM. For the same compound, the GI50 [22] was 6.52 µM, the TGI [22] was 27.3 µM and the GI50 [23] was 4.5 µM. The TGI [23] was 37.3 µM, the GI50 [24] was 4.16 µM and the TGI [24] was 17.6 µM. The GI50 [25] was 13.7 µM, the TGI [25] was greater than 100 µM and the GI50 [26] was 7.26 µM. For the same compound, the TGI [26] was 53.7 µM, the GI50 [27] was 1.86 µM and the TGI [27] was 3.78 µM. It also gave a GI50 [28] of 14.4 µM, a TGI [28] of 49.2 µM and a GI50 [29] of 4.49 µM. For the same compound, the TGI [29] was 22.3 µM, the GI50 [30] was 6.09 µM and the TGI [30] was 32.6 µM. For the same compound, the GI50 [31] was 7.82 µM, the TGI [31] was 30.5 µM and the GI50 [32] was 9.3 µM. The TGI [32] was 23.1 µM, the GI50 [33] was 2.75 µM and the TGI [33] was 8.16 µM. The GI50 [34] was 2.83 µM, the TGI [34] was 14.4 µM and the GI50 [35] was 8.05 µM. The TGI [35] was 25.7 µM, the GI50 [36] was 2.98 µM and the TGI [36] was 12 µM. For the same compound, the GI50 [37] was 4.31 µM, the TGI [37] was 18 µM and the GI50 [38] was 4.37 µM. The TGI [38] was greater than 100 µM, the GI50 [39] was 3.21 µM and the TGI [39] was 12.2 µM. For the same compound, the GI50 [40] was 6.13 µM, the TGI [40] was 25.3 µM and the GI50 [41] was 13.5 µM. It also gave a TGI [41] of 51.4 µM, a GI50 [42] of 9.1 µM and a TGI [42] of 50.3 µM. For the same compound, the GI50 [43] was 2.82 µM, the TGI [43] was 12.7 µM and the GI50 [44] was 3.06 µM. The TGI [44] was 12.9 µM, the GI50 [45] was 4.22 µM and the TGI [45] was greater than 100 µM. It also gave a GI50 [46] of 11.4 µM, a TGI [46] of 41.3 µM and a GI50 [47] of 8.51 µM. The TGI [47] was 42.1 µM, the GI50 [48] was 11 µM and the TGI [48] was 27.2 µM. It also gave a GI50 [49] of 20.6 µM, a TGI [49] of 63.4 µM and a GI50 [50] of 18.4 µM. For the same compound, the TGI [50] was 34.6 µM, the GI50 [51] was 18.4 µM and the TGI [51] was greater than 100 µM. For the same compound, the GI50 [52] was 3.99 µM, the TGI [52] was 15 µM and the GI50 [53] was 8.17 µM. For the same compound, the TGI [53] was 74.7 µM, the GI50 [54] was 1.84 µM and the TGI [54] was 4.93 µM. It also gave a GI50 [55] of 2.38 µM, a TGI [55] of 7.36 µM and a GI50 [56] of 5.51 µM. For the same compound, the TGI [56] was 28 µM.

COc1ccccc1[C@H]1C(C(=O)c2ccc(Cl)cc2)C2(N[C@@H]1c1ccccc1)C(=O)Nc1ccccc12 (stereo partly drawn) was tested, and the GI50 [2] was 1.21 µM, the TGI [2] was 2.89 µM and the GI50 [3] was 4.75 µM. For the same compound, the TGI [3] was 18 µM, the GI50 [4] was 2.13 µM and the TGI [4] was 61.5 µM. It also gave a GI50 [5] of 1.55 µM, a TGI [5] of 6.15 µM and a GI50 [6] of 1.48 µM. The TGI [6] was 3.73 µM, the GI50 [7] was 1.85 µM and the TGI [7] was 13.6 µM. The GI50 [8] was 3.34 µM, the TGI [8] was 61.5 µM and the GI50 [9] was 2.25 µM. The TGI [9] was 9.75 µM, the GI50 [10] was 1.79 µM and the TGI [10] was 5.88 µM. The GI50 [11] was 1.67 µM, the TGI [11] was 10.4 µM and the GI50 [12] was 1.5 µM. It also gave a TGI [12] of 4.66 µM, a GI50 [13] of 1.97 µM and a TGI [13] of 44.1 µM. The GI50 [14] was 3.86 µM, the TGI [14] was 14 µM and the GI50 [15] was 1.67 µM. For the same compound, the TGI [15] was 8.88 µM, the GI50 [16] was 1.95 µM and the TGI [16] was 11.6 µM. It also gave a GI50 [17] of 2.13 µM, a TGI [17] of 10.1 µM and a GI50 [18] of 1.81 µM. It also gave a TGI [18] of 7.38 µM, a GI50 [19] of 1.86 µM and a TGI [19] of 24.4 µM. The GI50 [20] was 1.13 µM, the TGI [20] was 13.2 µM and the GI50 [21] was 1.49 µM. It also gave a TGI [21] of 4.1 µM, a GI50 [22] of 1.24 µM and a TGI [22] of 2.9 µM. It also gave a GI50 [23] of 1.99 µM, a TGI [23] of 22.5 µM and a GI50 [57] of 1.6 µM. It also gave a TGI [57] of 5.79 µM, a GI50 [24] of 1.42 µM and a TGI [24] of 5.48 µM. It also gave a GI50 [25] of 2.45 µM, a TGI [25] of 24.9 µM and a GI50 [26] of 1.94 µM. The TGI [26] was 8.55 µM, the GI50 [27] was 1.81 µM and the TGI [27] was 7.63 µM. For the same compound, the GI50 [28] was 2.83 µM, the TGI [28] was 10.5 µM and the GI50 [29] was 1.91 µM. It also gave a TGI [29] of 8.25 µM, a GI50 [30] of 1.9 µM and a TGI [30] of 11.5 µM. It also gave a GI50 [31] of 2.19 µM, a TGI [31] of 12.1 µM and a GI50 [32] of 3.36 µM. For the same compound, the TGI [32] was 12.1 µM, the GI50 [33] was 4.16 µM and the TGI [33] was 13.2 µM. For the same compound, the GI50 [34] was 1.78 µM, the TGI [34] was 44.4 µM and the GI50 [35] was 3.68 µM. It also gave a TGI [35] of 33.2 µM, a GI50 [36] of 2.63 µM and a TGI [36] of 14 µM. The GI50 [37] was 2.1 µM, the TGI [37] was 7.72 µM and the GI50 [38] was 1.99 µM. For the same compound, the TGI [38] was 12 µM, the GI50 [39] was 1.87 µM and the TGI [39] was 6.52 µM. The GI50 [40] was 1.32 µM, the TGI [40] was 3.51 µM and the GI50 [41] was 2.06 µM. For the same compound, the TGI [41] was 21.9 µM, the GI50 [42] was 1.61 µM and the TGI [42] was 9.08 µM. For the same compound, the GI50 [58] was 1.11 µM, the TGI [58] was 12.5 µM and the GI50 [43] was 1.86 µM. The TGI [43] was 8.04 µM, the GI50 [44] was 1.24 µM and the TGI [44] was 3.85 µM. It also gave a GI50 [45] of 2.19 µM, a TGI [45] of 29.8 µM and a GI50 [46] of 3.24 µM. It also gave a TGI [46] of 19.5 µM, a GI50 [47] of 1.83 µM and a TGI [47] of 8.71 µM. For the same compound, the GI50 [48] was 1.24 µM, the TGI [48] was 4.17 µM and the GI50 [59] was 1.42 µM. It also gave a TGI [59] of 4.26 µM, a GI50 [49] of 2.39 µM and a TGI [49] of 12.6 µM. It also gave a GI50 [50] of 1.97 µM, a TGI [50] of 6.57 µM and a GI50 [51] of 2.36 µM. It also gave a TGI [51] of 31.8 µM, a GI50 [52] of 1.73 µM and a TGI [52] of 6.06 µM. For the same compound, the GI50 [53] was 1.23 µM, the TGI [53] was 51.5 µM and the GI50 [54] was 1.75 µM. It also gave a TGI [54] of 16.1 µM, a GI50 [55] of 4.24 µM and a TGI [55] of 55.3 µM. For the same compound, the GI50 [56] was 2.45 µM and the TGI [56] was 14.6 µM.
